Data from patent US11000033B2, “Ketone or oxime compound, and herbicide” (NISSAN CHEMICAL CORPORATION, priority 2014, dated 2021).

Tests used:
Assay type in all cases: in vivo
transplanted rice plant = experiment: Test Example 1: effect on crop, application before weed generation in submerged conditions (symbol a); conditions: application herbicide amount 320 g/ha
Procedure, shortened: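 Rice at 2.5 leaf stage transplanted into submerged soil (4 cm depth) sown with three weed species; herbicide applied before weed emergence.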

Scirpus juncoides = experiment: Test Example 2: herbicidal activity, application during weed generation in submerged conditions (symbol B); conditions: Table 23; application herbicide amount 320 g/ha; grade 0-5 by criteria of Test Example 1
Procedure, shortened: (§1)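 Compound was applied as a water-diluted emulsion into the standing water of flooded pots (4 cm) once co-sown weeds reached one to two leaves. Greenhouse temperature was 25° C. to 30° C., soil was alluvial, and each species was rated visually after 3 weeks.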

Monochoria vaginalis = experiment: Test Example 2: herbicidal activity, application during weed generation in submerged conditions (symbol C); conditions: Table 23; application herbicide amount 320 g/ha; grade 0-5 by criteria of Test Example 1
Procedure, shortened: as §1

[1] = tested on: Echinochloa crus-galli var. crus-galli; experiment: Test Example 4: herbicidal effect by soil treatment (symbol H); conditions: application herbicide amount 320 g/ha
Procedure, shortened: (§2)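 Seeds were sown in sterilized diluvial soil, covered with about 1.5 cm of soil, and the soil surface was sprayed with a water-diluted emulsion of the compound at a predetermined rate. Plants grew in a greenhouse at 25° C. to 30° C.; effects were scored visually 3 weeks after application.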

Avena fatua = experiment: Test Example 4: herbicidal effect by soil treatment (symbol I); conditions: application herbicide amount 320 g/ha
Procedure, shortened: as §2

Lolium multiflorum Lam. [2] = experiment: Test Example 4: herbicidal effect by soil treatment (symbol K); conditions: application herbicide amount 320 g/ha
Procedure, shortened: as §2

Abutilon theophrasti = experiment: Test Example 4: herbicidal effect by soil treatment (symbol M); conditions: application herbicide amount 320 g/ha
Procedure, shortened: as §2

soybean [3] = experiment: Test Example 4: effect on crop by soil treatment (symbol d); conditions: application herbicide amount 320 g/ha
Procedure, shortened: (§3)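 Soil-treatment setup: crop and weed seeds were spot-sown into sterilized diluvial soil, then buried beneath approximately 1.5 cm of it, and the boxes were housed in a 25–30° C. greenhouse.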

rice = experiment: Test Example 4: effect on crop by soil treatment (symbol b); conditions: application herbicide amount 320 g/ha
Procedure, shortened: as §3

wheat = experiment: Test Example 4: effect on crop by soil treatment (symbol e); conditions: application herbicide amount 320 g/ha
Procedure, shortened: as §3

beet = experiment: Test Example 4: effect on crop by soil treatment (symbol f); conditions: application herbicide amount 320 g/ha
Procedure, shortened: as §3

Digitaria ciliaris = experiment: Test Example 5: herbicidal effect by foliage application, plastic box (symbol F); conditions: 320 g/ha, 3 weeks after application
Procedure, shortened: (§4)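 Emulsion formulation, diluted with water to the intended rate, was applied uniformly to leaves by small sprayer. Recipients were 14-day greenhouse-grown seedlings (25° C. to 30° C.). Assessment followed at 3 weeks.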

[4] = tested on: Echinochloa crus-galli var. crus-galli; experiment: Test Example 5: herbicidal effect by foliage application, plastic box (symbol H); conditions: 320 g/ha, 3 weeks after application
Procedure, shortened: as §4

Lolium multiflorum Lam. [5] = experiment: Test Example 5: herbicidal effect by foliage application, plastic box (symbol K); conditions: 320 g/ha, 3 weeks after application
Procedure, shortened: as §4

Amaranthus retroflexus = experiment: Test Example 5: herbicidal effect by foliage application, plastic box (symbol N); conditions: 320 g/ha, 3 weeks after application
Procedure, shortened: as §4

corn = experiment: Test Example 5: effect on crop by foliage application, plastic box (symbol c); conditions: 320 g/ha, 3 weeks after application
Procedure, shortened: (§5)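 Foliage-application test plants come from spot sowing in sterilized diluvial soil under a soil layer of about 1.5 cm, grown at 25° C. to 30° C. in a greenhouse.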

soybean [6] = experiment: Test Example 5: effect on crop by foliage application, plastic box (symbol d); conditions: 320 g/ha, 3 weeks after application
Procedure, shortened: as §5

rapeseed = experiment: Test Example 5: effect on crop by foliage application, plastic box (symbol g); conditions: 320 g/ha, 3 weeks after application
Procedure, shortened: as §5

Row | SMILES | Effect grade on crop, a: transplanted rice plant (transplanted rice plant) | Herbicidal effect grade, B: Scirpus juncoides (Scirpus juncoides) | Herbicidal effect grade, C: Monochoria vaginalis (Monochoria vaginalis) | H (Echinochloa crus-galli var. crus-galli) herbicidal effect grade [1] | I (Avena fatua) herbicidal effect grade (Avena fatua) | K (Lolium multiflorum Lam.) herbicidal effect grade (Lolium multiflorum Lam. [2]) | M (Abutilon theophrasti) herbicidal effect grade (Abutilon theophrasti) | d (soybean) effect on crop grade (soybean [3]) | b (directly sowed rice plant) effect on crop grade (rice) | e (wheat) effect on crop grade (wheat) | f (beet) effect on crop grade (beet) | F: Digitaria ciliaris, herbicidal effect grade (Digitaria ciliaris) | H: Echinochloa crus-galli var. crus-galli, herbicidal effect grade [4] | K: Lolium multiflorum Lam., herbicidal effect grade (Lolium multiflorum Lam. [5]) | N: Amaranthus retroflexus, herbicidal effect grade (Amaranthus retroflexus) | c: corn, effect on crop grade (corn) | d: soybean, effect on crop grade (soybean [6]) | g: rapeseed, effect on crop grade (rapeseed)
1 | CC(CC1CC(O)=C(c2c(C)cc(C)cc2C)C1=O)=NOCC(F)(F)F (stereo not drawn) [1-028] | 5 (Herbicidal ratio of 90% or more (almost completely withered)) | 4 (Herbicidal ratio of 70% or higher and lower than 90%) | 0 (Herbicidal ratio of 5% or lower (almost no effect)) | 5 (Herbicidal ratio of 90% or more (almost completely withered)) | 4 (Herbicidal ratio of 70% or higher and lower than 90%) | 5 (Herbicidal ratio of 90% or more (almost completely withered)) | 3 (Herbicidal ratio of 40% or higher and lower than 70%) | 0 (Herbicidal ratio of 5% or lower (almost no effect)) | 5 (Herbicidal ratio of 90% or more (almost completely withered)) | 4 (Herbicidal ratio of 70% or higher and lower than 90%) | 0 (Herbicidal ratio of 5% or lower (almost no effect)) | 5 (Herbicidal ratio of 90% or more (almost completely withered)) | 5 (Herbicidal ratio of 90% or more (almost completely withered)) | 5 (Herbicidal ratio of 90% or more (almost completely withered)) | 0 (Herbicidal ratio of 5% or lower (almost no effect)) | 4 (Herbicidal ratio of 70% or higher and lower than 90%) | 2 (Herbicidal ratio of 20% or higher and lower than 40%) | 4 (Herbicidal ratio of 70% or higher and lower than 90%)
2 | CON=C(C)CC1CC(OCC#C[Si](C)(C)C)=C(c2c(C)cc(C)cc2C)C1=O (stereo not drawn) [1-031] | 0 (Herbicidal ratio of 5% or lower (almost no effect)) | 2 (Herbicidal ratio of 20% or higher and lower than 40%) | 0 (Herbicidal ratio of 5% or lower (almost no effect)) | 0 (Herbicidal ratio of 5% or lower (almost no effect)) | 0 (Herbicidal ratio of 5% or lower (almost no effect)) | 0 (Herbicidal ratio of 5% or lower (almost no effect)) | 0 (Herbicidal ratio of 5% or lower (almost no effect)) | 0 (Herbicidal ratio of 5% or lower (almost no effect)) | 0 (Herbicidal ratio of 5% or lower (almost no effect)) | 0 (Herbicidal ratio of 5% or lower (almost no effect)) | 0 (Herbicidal ratio of 5% or lower (almost no effect)) | 1 (Herbicidal ratio of 5% or higher and lower than 20%) | 1 (Herbicidal ratio of 5% or higher and lower than 20%) | 4 (Herbicidal ratio of 70% or higher and lower than 90%) | 0 (Herbicidal ratio of 5% or lower (almost no effect)) | 0 (Herbicidal ratio of 5% or lower (almost no effect)) | 0 (Herbicidal ratio of 5% or lower (almost no effect)) | 3 (Herbicidal ratio of 40% or higher and lower than 70%)
3 | CON=C(C)C(C)C1CC(O)=C(c2c(C)cc(C)cc2C)C1=O (stereo not drawn) [1-032] | 5 (Herbicidal ratio of 90% or more (almost completely withered)) | 4 (Herbicidal ratio of 70% or higher and lower than 90%) | 3 (Herbicidal ratio of 40% or higher and lower than 70%) | 5 (Herbicidal ratio of 90% or more (almost completely withered)) | 5 (Herbicidal ratio of 90% or more (almost completely withered)) | 5 (Herbicidal ratio of 90% or more (almost completely withered)) | 4 (Herbicidal ratio of 70% or higher and lower than 90%) | 0 (Herbicidal ratio of 5% or lower (almost no effect)) | 5 (Herbicidal ratio of 90% or more (almost completely withered)) | 5 (Herbicidal ratio of 90% or more (almost completely withered)) | 4 (Herbicidal ratio of 70% or higher and lower than 90%) | 5 (Herbicidal ratio of 90% or more (almost completely withered)) | 5 (Herbicidal ratio of 90% or more (almost completely withered)) | 5 (Herbicidal ratio of 90% or more (almost completely withered)) | 3 (Herbicidal ratio of 40% or higher and lower than 70%) | 5 (Herbicidal ratio of 90% or more (almost completely withered)) | 4 (Herbicidal ratio of 70% or higher and lower than 90%) | 4 (Herbicidal ratio of 70% or higher and lower than 90%)
4 | CON=C(C)CC1CC(OC(=O)C(C)(C)OC(C)=O)=C(c2c(C)cc(C)cc2C)C1=O (stereo not drawn) [1-034] | 5 (Herbicidal ratio of 90% or more (almost completely withered)) | 3 (Herbicidal ratio of 40% or higher and lower than 70%) | 3 (Herbicidal ratio of 40% or higher and lower than 70%) | 5 (Herbicidal ratio of 90% or more (almost completely withered)) | 5 (Herbicidal ratio of 90% or more (almost completely withered)) | 5 (Herbicidal ratio of 90% or more (almost completely withered)) | 5 (Herbicidal ratio of 90% or more (almost completely withered)) | 0 (Herbicidal ratio of 5% or lower (almost no effect)) | 5 (Herbicidal ratio of 90% or more (almost completely withered)) | 4 (Herbicidal ratio of 70% or higher and lower than 90%) | 4 (Herbicidal ratio of 70% or higher and lower than 90%) | 5 (Herbicidal ratio of 90% or more (almost completely withered)) | 5 (Herbicidal ratio of 90% or more (almost completely withered)) | 5 (Herbicidal ratio of 90% or more (almost completely withered)) | 3 (Herbicidal ratio of 40% or higher and lower than 70%) | 4 (Herbicidal ratio of 70% or higher and lower than 90%) | 4 (Herbicidal ratio of 70% or higher and lower than 90%) | 5 (Herbicidal ratio of 90% or more (almost completely withered))
